“Also recorded” adds a separate entry of the source. Where a SMILES comes first, the peptide text is derived from it. The star is where a group is joined. Cbz = O=C(OCc1ccccc1)*
How the values were obtained:
[1] = tested on: rats with PAH due to monocrotaline exposure; experiment: Monocrotaline PAH rats, glutaminase inhibitors daily i.p. Days 7-21 (Example 2); format: in vivo; conditions: MCT rats; for Fulton index / right ventricular systolic pressure (RVSP): 10 mg/kg daily i.p. Days 7-21, vs vehicle control
Procedure: In rats with PAH due to monocrotaline exposure, daily i.p, delivery of CB-839 (10 mg/kg) vs. UPGL00064 (10 mg/kg) vs. vehicle control was performed from Days 7-21 post-monocrotaline exposure. […] Error bars represent ±SEM. […] In rats with PAH due to monocrotaline exposure, daily i.p. delivery of CB-839 (10 mg/kg) vs. UPGL000064 (10 mg/kg) vs. vehicle control was performed from Days 7-21 post-monocrotaline exposure. […] Error bars represent ±SEM.

[2] = tested on: PAECs; experiment: RT-qPCR gene expression in PAECs; format: cell-based, human; conditions: for expression of Cluster 15 members (SLC9A3R1, LGALS3): IL-1β-induced expression changes
Procedure: (§1) The hypoxia chamber (modular incubator chamber) was obtained from Billups-Rothenberg Inc. (Del Mar, Cali) and placed in regulated CO2 incubator at 37° C.
RT-qPCR analysis: Cells were lysis in 1 ml of QiaZol reagent (Qiagen). Total RNA content was extracted using the RNeasy kit (Qiagen), according to the manufacturer's instructions. Total RNA concentration was determined using a BioTek Synergy multimode plate reader. Messenger RNAs were reverse transcribed to generate cDNA using the Multiscript RT kit (Thermo Fisher Scientific). cDNA for specific gene targets was amplified and quantified via fluorescently-labeled Taqman primer sets and Taqman fast advanced master mix (Thermo Fisher Scientific) using an Applied Biosystems QuantStudio 6 Flex Real-Time PCR System.

[3] = tested on: PAECs; experiment: Cellular apoptosis, caspase-3/7 activity (Caspase-Glo 3/7) in PAECs; format: cell-based, human; conditions: PAECs
Procedure: as §1
Cellular apoptosis: Caspase-3/7 activity was quantified using the Caspase-Glo 3/7 Assay (Promega), according to manufacturer's instructions. Caspase-3/7 activity was normalized to total protein content determined by BCA method (Thermo Fisher Scientific).

[4] = tested on: SU5416-hypoxic pulmonary arterial hypertension rats; experiment: SU5416-hypoxia pulmonary arterial hypertension rat model, disease-reversal dosing; format: in vivo, Sprague-Dawley rats; conditions: SU5416-hypoxia rats
Procedure: Briefly, 10 week old male Sprague-Dawley rats were injected i.p. with 20 mg/kg of SU5416 (Sigma), placed in normobaric hypoxia (10% 02) for 3 weeks and then transferred to normoxia for 2 weeks. During hypoxic exposure, chambers were opened twice a week for cleaning and replenishment of food and water. […] For BRD2889 vs. vehicle control dosing, i.p. injections every 5 days (5 mg/kg) were administered during the final two weeks of normoxia. Oxygen concentrations were continuously monitored with blood gas analyzers.
Measurement of GST activity: The GST activity from lung tissue and PAECs was assayed using GST assay kit (Cayman, MI, USA) per the manufacturer's instructions.
Rodent echocardiography: Echocardiography was performed using a 15-45M Hz transthoracic transducer and a Visual Sonics Vevo 3100 system (Fujifilm). Inhaled isoflurane anesthesia was used at 2% in 100% 02 during positioning and hair removal and then decreased to isoflurane 0.8% during imaging.

[5] = tested on: LGALS8; experiment: Immunoblot and densitometry of LGALS8 isoforms in PAECs; format: cell-based, human; conditions: IL-1β, listed as I-BET
Procedure: (§2) Immunoblot and densitometry: Cells were lysed in RIPA buffer (Sigma) along with 1× protease inhibitor cocktail (Sigma). Protein lysate was resolved by gradient 4%-15% SDS-PAGE gels and transferred onto a 0.2 μm PVDF membrane (Bio-Rad). Membranes were blocked in 5% non-fat milk in 1×PBST buffer for one hour at room temperature. Later, they were incubated in the presence of the primary antibody overnight at 4° C., and then appropriate HRP-conjugated secondary antibodies (Life Technologies). The following antibodies were used: human LGALS8 (AF1305, RnD Systems), mouse/rat Lgals8 ([…], Abcam), pSTAT1 (ab29045, Abcam) and STAT1 (ab47425, Abcam), GSTP1 (ab153949, Abcam), ISCU (14812-1-AP, Pointech), Glutathione (ab19534, Abcam), HIF2A (NB100-122, Novous), α-Tubulin (CP06, Millipore sigma), and ACTB (sc-47778, Santa Cruz). The immunoreactive bands were visualized with the Chemidoc XRS+ system (Bio-Rad) using SuperSignal West Femto chemiluminescent substrates (Thermo Fisher Scientific). The images were later quantified using AlphaEaseFC software (Alpha Innotech).

[6] = tested on: hypoxia-induced pulmonary hypertension mice; experiment: Hypoxia-induced (Group 3) pulmonary hypertension mouse model
Source text: Animal models: For the hypoxia-induced pulmonary hypertension mice, male C57BL/6J mice (8 weeks old) (RRID:IMSR_JAX:000664) were purchased from Jackson laboratory and acclimatized for 3-4 days in this facility. Subsequently, mice scheduled for normoxic vs. hypoxic exposure were maintained in either normoxia or a normobaric hypoxia chamber for 1 or 3 weeks (OxyCycler, Biospherix Ltd.), where consistent exposure to 10% oxygen and control for temperature and humidity were possible.
I-BET was dissolved in DMSO at 100× concentration and then made into a working solution in 20% PEG400 and 80% 1×PBS.
Male and female 8 week old Lgals8−/− mice were exposed to hypoxia for 3 weeks. Littermates were used as wildtype (WT) control when comparing with knockout mice.
Immunofluorescent staining: Cryostat sections were cut from OCT-embedded lung tissues at 5-10 μm and mounted on gelatin-coated histological slides. Slides were thawed at room temperature for 10-20 min and rehydrated in wash buffer for 10 minutes. All sections were blocked in 10% donkey scrum and exposed to primary antibody and Alexa 488, 568 and 647-conjugated secondary antibodies (Thermo Fisher Scientific). The following primary antibodies were used: Lgals8 (Ab69631, Abcam; 1/2200), IL-1 (ab9722, Abcam; 1%200), GSTP1 (ab153949, Abcam; 1:100), ISCU (14812-1-AP, Proteintech; 1:100), cleaved caspase 3 (cs-9661, Cell Signaling; 1/400), α-SMA (F3777, Sigma; I/200) and CD31 (ab7388, Abcam: 1/200). Images were obtained using Nikon A1 confocal microscope with 40× objective. Small pulmonary vessels (10 vessels/section) that were not associated with bronchial airways were selected for analysis. Intensity of staining was quantified using ImageJ software (NIH). Degree of pulmonary arteriolar muscularization was assessed in OCT lung sections stained for α-SMA by calculation of the proportion of fully and partially muscularized peripheral (<100 μm diameter) pulmonary arteriole to total peripheral pulmonary arterioles (Bertero T et al. J Clin Invest. 2014, 124, 3514-3528).

[7] = tested on: PAECs; experiment: Flow cytometry detection of mitochondrial superoxide (MitoSOX Red) in PAECs
Procedure: To assess the effect of I-BET under inflammatory conditions, cells were treated with recombinant human IL-1β (10 ng/ml, Peprotech) at about 70-80% confluency for 48 h in complete media along with vehicle control (DMSO, Sigma-41639), I-BET151 (500 nM), 1-BET762 (500 nM) (Selleckchem-S2780/S7189), as indicated.
For hypoxia exposure, cells were plated in 6-well cell culture plates at 1×10^5 cells/well, grown for 24 hr and placed into a normobaric hypoxia chamber (1%02) for 24 h under specific treatment conditions. Namely, for I-BET and siLGALS8 exposures, cells were either pre-treated with I-BET/vehicle control (VC) or transfected with siLgals8/Scr for 24 h. Then, they were cultured in basal media at 1% 02. After 24 h, caspase activity and mitochondrial superoxide levels were quantified. To detect activation status of pSTAT1/STAT1 by immunoblot, cells were exposed to 8 h of hypoxia.
Flow cytometry detection of mitochondria superoxide: For measuring mitochondrial superoxide, cells were incubated with 5 μM of MitoSOX Red mitochondrial superoxide indicator (Thermo Fisher Scientific) for 10 min in 37° C.

[8] = tested on: ISCU; experiment: Protein stability assay (proteasome inhibitor MG132) in hypoxic PAECs; format: cell-based, human; design: dose or concentration left out as unconfirmed; conditions: MG132 (2 h)
Procedure: Protein stability assay: The proteasome inhibitor MG132 (M7449, Sigma) was stored at −20° C. at a concentration of 10 mM diluted in dimethyl sulfoxide (DMSO). PAECs were exposed to MG132 ([…]) vs. DMSO vehicle control for 2 hr under hypoxia, prior to harvesting of cellular lysate for immunoblotting.
as §2

[9] = IL-1β 10 ng/ml 48 h, 500 nM vs vehicle control
[10] = IL-1β 10 ng/ml 48 h, 500 nM vs vehicle control, listed as I-BET
[11] = I-BET762 30 mg/kg daily i.p. or BRD2889 5 mg/kg i.p. every 5 days, final 2 weeks
[12] = hypoxic mice, I-BET762 30 mg/kg daily oral
[13] = IL-1β 48 h, I-BET plus rhGal8 24 h (30 nM)

O=C(Cc1cccc(OC(F)(F)F)c1)Nc1ccc(CCCCc2nnc(NC(=O)Cc3ccccn3)s2)nn1 [CB-839, reference compound]
Fulton index [1]: significantly decreased | right ventricular systolic pressure (RVSP) [1]: significantly decreased

COc1cc2c(cc1-c1c(C)noc1C)ncc1[nH]c(=O)n([C@H](C)c3ccccn3)c12 [I-BET151]
expression of Cluster 15 members (SLC9A3R1, LGALS3) [2]: reversed

CCNC(=O)C[C@@H]1N=C(c2ccc(Cl)cc2)c2cc(OC)ccc2-n2c(C)nnc21 [I-BET762]
apoptosis, caspase-3/7 activity [3, 9]: reversed the IL-1β-induced increases | apoptosis, caspase-3/7 activity [3, 10]: reduced the IL-1β-dependent increase | apoptosis, caspase-3/7 activity ([3]; hypoxia 24 h, I-BET vs vehicle control): reversed the hypoxia-induced increases | LGALS8-L transcript ([2]; IL-1β): reversed the alterations | expression of C15 genes LGALS3, LGALS8, DAG1, SLC9A3R1 (extent of reversal) ([2]; IL-1β): near complete reversal | expression of CD47, ABCC4 and DAG1 ([2]; IL-1β): all rescued | expression of Cluster 15 (C15) gene galectin-8 (LGALS8) ([2]; IL-1β): reversed the IL-1β-induced increases | LGALS8-L transcript ([2]; IL-1β, listed as I-BET): reversed by I-BET | LGALS8-M transcript ([2]; IL-1β, listed as I-BET): not altered by I-BET | expression of Cluster 15 members (SLC9A3R1, LGALS3) [2]: reversed | LGALS8 in pulmonary arterioles (immunofluorescence) ([4]; I-BET762 30 mg/kg daily i.p. Days 21-35): decreased | arteriolar muscularization (α-SMA) [4, 11]: reduced | cleaved caspase-3 (CC-3), endothelial apoptosis [4, 11]: reduced downstream apoptosis; also recorded: decreased | right ventricular systolic pressure (RVSP) [4, 11]: reduced | LGALS8-L protein (immunoblot densitometry) [5]: followed its mRNA expression; also recorded: reversed the IL-1β-induced increase | LGALS8-M protein (immunoblot densitometry) [5]: no significant difference | cleaved caspase-3 (apoptosis) [6, 12]: reduced downstream apoptosis; also recorded: reversed the 3 week hypoxia-dependent increases | heart rate [6, 12]: without significant effect | pulmonary vascular LGALS8 expression [6, 12]: robustly decreased; also recorded: reversed the 3 week hypoxia-dependent increases | pulmonary vascular muscularization (α-SMA) [6, 12]: reduced; also recorded: reversed the 3 week hypoxia-dependent increases | right ventricular systolic pressure (RVSP) [6, 12]: reduced; also recorded: reversed the 3 week hypoxia-dependent increases | LGALS8 ([6]; normoxic mice, similar dosing, mean±SEM, vehicle control 1±0.02, p=NS): 1.08±0.03 fold change | mitochondrial superoxide (O2−) levels, MitoSOX Red [7, 9]: reversed the IL-1β-induced increases; also recorded: reversed by I-BET762 | mitochondrial superoxide (O2−) levels, MitoSOX Red [7, 10]: reduced the IL-1β-dependent increase | mitochondrial superoxide (O2−) levels, MitoSOX Red ([7]; hypoxia 24 h, vs vehicle control): reversed the hypoxia-induced increases

CC(C)C[C@@H](C=O)NC(=O)[C@H](CC(C)C)NC(=O)[C@H](CC(C)C)NC(=O)OCc1ccccc1 [MG132] (Cbz-Leu-Leu-Leu-aldehyde)
GSTP1 and ISCU glutathionylation [8]: without affecting GSTP1 or glutathionylation | ISCU protein [8]: reversed the hypoxic down-regulation of ISCU; also recorded: reversed the hypoxia-induced reduction of ISCU

O=C(Cc1ccccc1)Nc1nnc(NC2CCN(c3nnc(NC(=O)CC4CC4)s3)CC2)s1 [UPGL00064]
Fulton index, compared with CB-839 ([1]; 10 mg/kg daily i.p. Days 7-21): more robust trend toward lower Fulton index | RVSP, compared with CB-839 ([1]; 10 mg/kg daily i.p. Days 7-21): more robust trend toward lower RVSP | Fulton index [1]: significantly decreased | right ventricular systolic pressure (RVSP) [1]: significantly decreased

B1: rhGal8: recombinant human LGALS8 (galectin-8), R&D Systems 1305-GA-050 (protein, UniProt O00214 1-317, looked up)
Galectin-8: MMLSLNNLQNIIYNPVIPFVGTIPDQLDPGTLIVIRGHVPSDADRFQVDLQNGSSMKPRADVAFHFNPRFKRAGCIVCNTLINEKWGREEITYDTPFKREKSFEIVIMVLKDKFQVAVNGKHTLLYGHRIGPEKIDTLGIYGKVNIHSIGFSFSSDLQSTQASSLELTEISRENVPKSGTPQLRLPFAARLNTPMGPGRTVVVKGEVNANAKSFNVDLLAGKSKDIALHLNPRLNIKAFVRNSFLQESWGEEERNITSFPFSPGMYFEMIIYCDVREFKVAVNGVHSLEYKHRFKELSSIDTLEINGDIHLLEVRSW
caspase 3/7 activity (apoptosis): effect of rhGal8 on the I-BET-induced attenuation [3, 13]: reduced the ability of I-BET to decrease; also recorded: reversed the I-BET-induced attenuation | apoptosis ([3]; rhGal8 alone): alone had no effect | mitochondrial O2−: effect of rhGal8 on the I-BET-induced attenuation [7, 13]: reduced the ability of I-BET to decrease; also recorded: reversed the I-BET-induced attenuation; also recorded: attenuated | mitochondrial superoxide ([7]; rhGal8 alone): alone had no effect
